Laboratory results published in PMC6271531 (2014).

Columns and labels:
[1] = system: single stranded oligonucleotide d(CGCGAATTCGCG) (ss) (DNA, single strand) CGCGAATTCGCG; assay: ESI-IM-MS, negative mode; settings: NH4+ (100 mM ammonium acetate); 20% methanol, pH 6.7; 1:10 molar ratio (170 µM compound); very low abundance, none at 1:1
[2] = system: d(CGCGAATTCGCG)2, Dickerson DNA duplex (ds) (DNA, duplex) CGCGAATTCGCG; assay: ESI-MS, negative mode; settings: NH4+ (100 mM ammonium acetate); pH 6.7; equimolar; reference ligand, value not shown

Row | binding [1] | binding [2] | SMILES
1 | weak |  | O=C(CCN(CCC(=O)NCCNC(=S)Nc1ccccc1)CCC(=O)NCCNC(=S)Nc1ccccc1)NCCNC(=S)Nc1ccccc1
2 |  | yes | N=C(N)c1ccc(N=NNc2ccc(C(=N)N)cc2)cc1
3 | weak |  | NCCNC(=O)CCN(CCC(=O)NCCN)CCC(=O)NCCN
